Assay results reported in US5225420A, “Use of tetrahydrothienopyridine derivatives as angiogenesis inhibitors” (Elf-Sanofi, priority 1991, dated 1993).
Read-outs that look alike come from different tables or passages of the source.

Assays:
[1] = tested on: bovine cerebral cortex capillary endothelial cells; assay: Inhibition of rb-FGF-stimulated capillary endothelial cell proliferation (in vitro test); type: cell-based; settings: 1 ng/ml rb-FGF, cell counting 5 days after addition of test product, read-out: IC50 (50% inhibition of cell proliferation)
Method: A nutrient medium (Dulbecco's modified Eagle medium-DMEM), supplemented with fetal calf serum (concentration: 5% V/V) and containing glutamine (4 mM), penicillin (100 U/ml) and streptomycin sulphate (100 μg/ml), is introduced into 1-ml wells and innoculated with bovine cerebral cortex capillary endothelial cells (20×10^3 cells/ml), isolated and cultured as described by D. Gospodarowicz et al. in J. Cell. Physiol. 127, p. 121-136 (1986).
As soon as cell adhesion has taken place, 1 ng/ml of recombinant bovine basic fibroblast growth factor (rb-FGF), marketed by Amersham, a known factor for the stimulation of angiogenesis in vivo, is added, followed by the test solutions.
Cell counting is performed 5 days after the addition of 20 μl of a solution of the test products in dimethyl sulphoxide such that their final concentration in the medium is between 10^-4 and 10^-8 M; the control wells receive 20 μl of solvent.
From the results obtained for several concentrations of each of the test products, the concentration at which the latter produce a 50% inhibition of cell proliferation is calculated in a conventional manner.

[2] = tested on: angiogenic response induced by fibrin gels; settings: rat
Method: (§1) Perforated Plexiglas chambers containing a fibrin gel, obtained by polymerisation of rat fibrinogen in the presence of thrombin, are implanted subcutaneously in rats.
The test products, suspended in absolute alcohol and 5% gum arabic (10 ml/kg), are administered orally to the rats at doses of 5 and 25 mg/kg/day for the compounds of Examples 3 and 4, for 5 days before implantation and up to the time of removal of the chambers. After 14 days, a granulation outgrowth is formed, and the chambers are removed in order to observe the height of the granulation outgrowth anchored in the matrix and the quantity of newly-formed vessels which have appeared.
(§2) The inhibition of the angiogenic response was evaluated by:
(§3) (i) the height and diameter of the granulation outgrowths,
(§4) (ii) the number of newly-formed vessels per outgrowth and their localisation,
(§5) (iii) the quality of the granulation tissue.

[3] = tested on: angiogenic response induced by fibrin gels; settings: rat, treatment begun after 14 days
Method: as §1, §2, §3, §4, §5

[4] = tested on: platelet aggregation; settings: described in EP-A-0 281,459; cited from earlier work
[5] = Bos taurus, Endothelial cell, 120 h

Row | SMILES | IC50 [1, 5] | IC50 [1] | effectiveness on height of granulation outgrowths ([2]; 5 mg/kg/day oral) | inhibition of height of the granulation outgrowths ([2]; 25 mg/kg/day oral) | lowering of number of newly-formed vessels per outgrowth ([2]; 25 mg/kg/day oral) | further results
1 | O=C(O)C(c1ccccc1Cl)N1CCc2sccc2C1 (single isomer, unassigned) [Compound 1] | 600 nM | – | – | – | – | –
2 | COC(=O)C(c1ccccc1Cl)N1CCc2sccc2C1 (single isomer, unassigned) [Compound 3] | – | 0.8 nM | remains effective | 50% | 90% | angiogenesis-inhibiting activity ([2]; 5 mg/kg/day oral): still very active; inhibition of height of the granulation outgrowths ([2]; 5 mg/kg/day oral): 50%; lowering of number of newly-formed vessels per outgrowth ([2]; 5 mg/kg/day oral): 50%; angiogenesis-inhibiting activity (comparison with compound No. 4) ([2]; 25 mg/kg/day oral): markedly more active than its homologue, the compound No. 4; quality of the granulation tissue ([2]; oral, dose not given): more loose-textured and disorganised; activity on regression of angiogenesis ([3]; 5 mg/kg/day): still very active; activity on regression of angiogenesis (comparison with compound No. 4) ([3]; 25 mg/kg/day): markedly more active than its homologue, the compound No. 4
3 | COC(=O)C(c1ccccc1Cl)N1CCc2sccc2C1 (single isomer, unassigned) [Compound 4, laevorotatory isomer of methyl alpha-(4,5,6,7-tetrahydrothieno[3,2-c]pyrid-5-yl)-alpha-(2-chlorophenyl)acetate] | – | 3.7 nM | in contrast to the latter compound | 30% | 60% | platelet aggregation inhibition [4]: inactive
4 | COC(=O)C(c1ccccc1Cl)N1CCc2sccc2C1 (centres unmarked) [Compound 2] | 2.3 nM | – | – | – | – | –
5 | CCOC(=O)C(c1ccccc1Cl)N1CCc2sccc2C1 (centres unmarked) [Compound 5] | 70 nM | – | – | – | – | –
6 | CCCCOC(=O)C(c1ccccc1Cl)N1CCc2sccc2C1 (centres unmarked) [Compound 6] | 220 nM | – | – | – | – | –
